In paper PMC3265250 (Chemotherapy Research and Practice, 2011):
In brackets after ≈: the same amount, converted by molar mass. Where two headings read alike, the source gives them in different places. Positions of bridges follow the written chain, without caps; N, C: chain ends. Residues, ends and D or L forms follow the SMILES beside them.

How the values were obtained:
[1] = system: S. aureus ATCC 9144; test: MIC, microbroth dilution, referential strain ATCC 9144; format: cell-based, Staphylococcus aureus
[2] = system: Superantigen positive S. aureus (14); conditions: for MIC 50% / MIC 90% / MIC Range: microbroth dilution, MHB II, 5 × 10^5 CFU/mL, 18 h at 37°C
[3] = system: Superantigen negative S. aureus (10); conditions: for MIC 50% / MIC 90% / MIC Range: microbroth dilution, MHB II, 5 × 10^5 CFU/mL, 18 h at 37°C
[4] = system: S. aureus ATCC 6538P; test: MIC, microbroth dilution, referential strain ATCC 6538P; format: cell-based, Staphylococcus aureus
Method: (§1) A total number of 24 SA strains were obtained from patients with erythrodermia and 3 reference SA ones from the American Type Culture Collection: 6538P ATCC, 9144 ATCC, and 25923 ATCC (Institute of Experimental Therapy, Wroclaw, Poland). […] Polypropylene 96-well plates (Sigma-Aldrich) were incubated for 18 h at 37°C. MIC was taken as the lowest drug concentration at which a noticeable growth was inhibited. […] The experiments were performed in triplicate.

[5] = system: Superantigen negative S. aureus (10); test: microbe, parasite or virus in culture; conditions: Staphylococcus aureus; for MIC50 / MIC90 / MIC: 18 h; for MIC: read-out: MIC Range
[6] = system: S. aureus ATCC 25923; test: MIC, microbroth dilution, referential strain ATCC 25923; format: cell-based, Staphylococcus aureus
Method: as §1

[7] = system: Superantigen positive S. aureus (14); test: microbe, parasite or virus in culture; conditions: Staphylococcus aureus; for MIC50 / MIC90 / MIC: 18 h; for MIC: read-out: MIC Range
[8] = system: clinical isolates of SA; conditions: 18 h
[9] = Staphylococcus aureus, ATCC9144, ATCC 9144, microbroth dilution, MHB II, 5 × 10^5 CFU/mL, 18 h at 37°C, triplicate, read-out: MIC
[10] = superantigen positive clinical isolates (14), more than 99.9% reduction of the initial inoculums, triplicate
[11] = superantigen negative clinical isolates (10), more than 99.9% reduction of the initial inoculums, triplicate
[12] = Staphylococcus aureus, ATCC6538P, ATCC 6538P, microbroth dilution, MHB II, 5 × 10^5 CFU/mL, 18 h at 37°C, triplicate, read-out: MIC
[13] = Staphylococcus aureus, ATCC25923, ATCC 25923, microbroth dilution, MHB II, 5 × 10^5 CFU/mL, 18 h at 37°C, triplicate, read-out: MIC
[14] = ATCC 9144, microbroth dilution, MHB II, 5 × 10^5 CFU/mL, 18 h at 37°C, triplicate
[15] = superantigen positive clinical isolates (14), triplicate
[16] = superantigen negative clinical isolates (10), triplicate
[17] = ATCC 6538P, microbroth dilution, MHB II, 5 × 10^5 CFU/mL, 18 h at 37°C, triplicate
[18] = ATCC 25923, microbroth dilution, MHB II, 5 × 10^5 CFU/mL, 18 h at 37°C, triplicate

SMILES	MIC [1, 9]	MBC Range [2, 10]	MBC Range [3, 11]	MIC [4, 12]	MIC50 [5]	MIC90 [5]	MIC [5]	MIC90 ([5]; read-out: MICs 90%)	MBC ([5]; read-out: MBC 50%)	MBC ([5]; read-out: MBC 90%)	MIC50 [7]	MIC90 [7]	MIC [7]	MIC90 ([7]; read-out: MICs 90%)	MBC ([7]; read-out: MBC 50%)	MBC ([7]; read-out: MBC 90%)	MBC 50% [2]	MBC 90% [2]	MBC 50% [3]	MBC 90% [3]	further results
CCC[C@@H]1C[C@@H](C(=O)N[C@@H]([C@H]2O[C@H](SC)[C@H](O)[C@@H](O)[C@H]2O)[C@H](C)Cl)N(C)C1 [Clindamycin, clindamycin]	2 µg/mL (≈ 4.71 µM)	16 to 512 µg/mL	64 to 128 µg/mL	4 µg/mL (≈ 9.41 µM)	32 µg/mL (≈ 75.3 µM)	32 µg/mL (≈ 75.3 µM)	16 to 64 µg/mL (≈ 37.6 to 151 µM)	32 µg/mL (≈ 75.3 µM)	32 µg/mL (≈ 75.3 µM)	64 µg/mL (≈ 151 µM)	64 µg/mL (≈ 151 µM)	512 µg/mL (≈ 1200 µM)	8 to 512 µg/mL (≈ 18.8 to 1200 µM)	512 µg/mL (≈ 1200 µM)	64 µg/mL (≈ 151 µM)	128 µg/mL (≈ 301 µM)	–	–	–	–	MIC [6, 13]: 2 µg/mL (≈ 4.71 µM)
CCCCCCCCCC(=O)N[C@@H](Cc1c[nH]c2ccccc12)C(=O)N[C@H](CC(N)=O)C(=O)N[C@@H](CC(=O)O)C(=O)N[C@@H]1C(=O)NCC(=O)N[C@@H](CCCN)C(=O)N[C@@H](CC(=O)O)C(=O)N[C@H](C)C(=O)N[C@@H](CC(=O)O)C(=O)NCC(=O)N[C@H](CO)C(=O)N[C@@H]([C@H](C)CC(=O)O)C(=O)N[C@@H](CC(=O)c2ccccc2N)C(=O)O[C@@H]1C [Daptomycin, daptomycin]	–	1 to 4 µg/mL	1 to 4 µg/mL	–	–	–	–	–	–	–	–	–	–	–	–	–	2 µg/mL (≈ 1.23 µM)	4 µg/mL (≈ 2.47 µM)	2 µg/mL (≈ 1.23 µM)	2 µg/mL (≈ 1.23 µM)	MIC [1, 14]: 2 µg/mL (≈ 1.23 µM); MICs values (range) [8]: 1 to 4 mg/L; MIC 50% [2, 15]: 1 µg/mL (≈ 0.617 µM); MIC 90% [2, 15]: 2 µg/mL (≈ 1.23 µM); MIC Range [2, 15]: 1 to 4 µg/mL; MIC 50% [3, 16]: 1 µg/mL (≈ 0.617 µM); MIC 90% [3, 16]: 2 µg/mL (≈ 1.23 µM); MIC Range [3, 16]: 1 to 4 µg/mL; MIC [4, 17]: 2 µg/mL (≈ 1.23 µM); MIC [6, 18]: 2 µg/mL (≈ 1.23 µM)
CCCCCCCCCCCCCCCC(=O)N[C@@H](CCCCN)C(=O)N[C@@H](CCCCN)C(N)=O [Lipopeptide, Pal-KK-NH2]	–	2 to 8 µg/mL	2 to 8 µg/mL	–	–	–	–	–	–	–	–	–	–	–	–	–	4 µg/mL (≈ 7.82 µM)	8 µg/mL (≈ 15.6 µM)	4 µg/mL (≈ 7.82 µM)	8 µg/mL (≈ 15.6 µM)	MIC [1, 14]: 2 µg/mL (≈ 3.91 µM); MIC values (range) [8]: 1 to 8 µg/mL; MIC 50% [2, 15]: 2 µg/mL (≈ 3.91 µM); MIC 90% [2, 15]: 4 µg/mL (≈ 7.82 µM); MIC Range [2, 15]: 1 to 8 µg/mL; MIC 50% [3, 16]: 2 µg/mL (≈ 3.91 µM); MIC 90% [3, 16]: 4 µg/mL (≈ 7.82 µM); MIC Range [3, 16]: 1 to 8 µg/mL; MIC [4, 17]: 2 µg/mL (≈ 3.91 µM); MIC [6, 18]: 4 µg/mL (≈ 7.82 µM)
CC(C)C[C@H](NC(=O)[C@H](CCCNC(=N)N)NC(=O)CNC(=O)CNC(=O)[C@@H](N)CCCNC(=N)N)C(=O)N[C@H]1CSSC[C@@H](C(=O)N[C@H](C(=O)NCC(=O)N[C@@H](CCCNC(=N)N)C(N)=O)C(C)C)NC(=O)[C@H](C(C)C)NC(=O)[C@@H]2CSSC[C@H](NC(=O)[C@H](Cc3ccc(O)cc3)NC1=O)C(=O)N[C@@H](CCCNC(=N)N)C(=O)N[C@@H](CCCNC(=N)N)C(=O)N[C@@H](CCCNC(=N)N)C(=O)N[C@@H](Cc1ccccc1)C(=O)N2 [Protegrin 1, protegrin 1]	–	2 to 8 µg/mL	2 to 8 µg/mL	–	–	–	–	–	–	–	–	–	–	–	–	–	4 µg/mL (≈ 1.86 µM)	8 µg/mL (≈ 3.71 µM)	4 µg/mL (≈ 1.86 µM)	8 µg/mL (≈ 3.71 µM)	MIC [1, 14]: 2 µg/mL (≈ 0.928 µM); MIC values (range) [8]: 1 to 8 µg/mL; MIC 50% [2, 15]: 2 µg/mL (≈ 0.928 µM); MIC 90% [2, 15]: 4 µg/mL (≈ 1.86 µM); MIC Range [2, 15]: 1 to 4 µg/mL; MIC 50% [3, 16]: 2 µg/mL (≈ 0.928 µM); MIC 90% [3, 16]: 4 µg/mL (≈ 1.86 µM); MIC Range [3, 16]: 1 to 4 µg/mL; MIC [4, 17]: 4 µg/mL (≈ 1.86 µM); MIC [6, 18]: 4 µg/mL (≈ 1.86 µM)
CO[C@H]1/C=C/O[C@@]2(C)Oc3c(C)c(O)c4c(O)c(c(/C=N/N5CCN(C)CC5)c(O)c4c3C2=O)NC(=O)/C(C)=C\C=C\[C@H](C)[C@H](O)[C@@H](C)[C@@H](O)[C@@H](C)[C@H](OC(C)=O)[C@@H]1C [Rifampicin, rifampicin]	0.25 µg/mL (≈ 0.304 µM)	0.5 to 2 µg/mL	1 to 2 µg/mL	0.25 µg/mL (≈ 0.304 µM)	0.25 µg/mL (≈ 0.304 µM)	1 µg/mL (≈ 1.22 µM)	0.25 to 1 µg/mL (≈ 0.304 to 1.22 µM)	1 µg/mL (≈ 1.22 µM)	0.25 µg/mL (≈ 0.304 µM)	1 µg/mL (≈ 1.22 µM)	0.25 µg/mL (≈ 0.304 µM)	1 µg/mL (≈ 1.22 µM)	0.25 to 1 µg/mL (≈ 0.304 to 1.22 µM)	1 µg/mL (≈ 1.22 µM)	1 µg/mL (≈ 1.22 µM)	2 µg/mL (≈ 2.43 µM)	–	–	–	–	MIC [6, 13]: 0.25 µg/mL (≈ 0.304 µM)
CC[C@H](C)[C@@H]1NC(=O)CNC(=O)[C@H](CCCNC(=N)N)NC(=O)[C@H](Cc2ccc(O)cc2)NC(=O)[C@@H]2CSSC[C@H](NC1=O)C(=O)N[C@@H](Cc1ccc(O)cc1)C(=O)N[C@@H](CCCNC(=N)N)C(=O)N[C@@H](CCCCN)C(=O)N[C@H](C(=O)N[C@@H](CCCNC(=N)N)C(N)=O)CSSC[C@H](NC(=O)[C@H](Cc1c[nH]c3ccccc13)NC(=O)[C@@H](N)CCCCN)C(=O)N[C@@H](Cc1ccccc1)C(=O)N[C@@H](CCCNC(=N)N)C(=O)N[C@@H](C(C)C)C(=O)N2 [Tachyplesin 3, tachyplesin 3] (H-KWCFRVCYRGICYRKCR-NH2; disulfide 3-16, 7-12 (inferred); N-terminus and C-terminus assumed)	–	–	–	–	–	–	–	–	–	–	–	–	–	–	–	–	2 µg/mL (≈ 0.895 µM)	4 µg/mL (≈ 1.79 µM)	2 µg/mL (≈ 0.895 µM)	4 µg/mL (≈ 1.79 µM)	MIC values (range) [8]: 1 to 8 µg/mL
CN(C)c1cc(NC(=O)CNC(C)(C)C)c(O)c2c1C[C@H]1C[C@H]3[C@H](N(C)C)C(O)=C(C(N)=O)C(=O)[C@@]3(O)C(O)=C1C2=O [Tigecycline, tigecycline]	0.25 µg/mL (≈ 0.427 µM)	1 to 2 µg/mL	1 to 2 µg/mL	0.25 µg/mL (≈ 0.427 µM)	0.5 µg/mL (≈ 0.854 µM)	0.5 µg/mL (≈ 0.854 µM)	0.5 to 1 µg/mL (≈ 0.854 to 1.71 µM)	0.5 µg/mL (≈ 0.854 µM)	1 µg/mL (≈ 1.71 µM)	1 µg/mL (≈ 1.71 µM)	0.5 µg/mL (≈ 0.854 µM)	0.5 µg/mL (≈ 0.854 µM)	0.5 to 1 µg/mL (≈ 0.854 to 1.71 µM)	0.5 µg/mL (≈ 0.854 µM)	1 µg/mL (≈ 1.71 µM)	1 µg/mL (≈ 1.71 µM)	–	–	–	–	MIC [6, 13]: 0.25 µg/mL (≈ 0.427 µM)
CN[C@H](CC(C)C)C(=O)N[C@H]1C(=O)N[C@@H](CC(N)=O)C(=O)N[C@H]2C(=O)N[C@H]3C(=O)N[C@H](C(=O)N[C@H](C(=O)O)c4cc(O)cc(O)c4-c4cc3ccc4O)[C@H](O)c3ccc(c(Cl)c3)Oc3cc2cc(c3O[C@@H]2O[C@H](CO)[C@@H](O)[C@H](O)[C@H]2O[C@H]2C[C@](C)(N)[C@H](O)[C@H](C)O2)Oc2ccc(cc2Cl)[C@H]1O [Vancomycin, vancomycin]	–	–	–	–	1 µg/mL (≈ 0.69 µM)	1 µg/mL (≈ 0.69 µM)	0.5 to 1 µg/mL (≈ 0.345 to 0.69 µM)	1 µg/mL (≈ 0.69 µM)	1 µg/mL (≈ 0.69 µM)	2 µg/mL (≈ 1.38 µM)	1 µg/mL (≈ 0.69 µM)	2 µg/mL (≈ 1.38 µM)	0.5 to 2 µg/mL (≈ 0.345 to 1.38 µM)	2 µg/mL (≈ 1.38 µM)	2 µg/mL (≈ 1.38 µM)	4 µg/mL (≈ 2.76 µM)	–	–	–	–	MIC ([1]; Staphylococcus aureus, ATCC9144, 18 h): 2 µg/mL (≈ 1.38 µM); MBC Range [2]: 1 to 4 µg/mL; MBC Range [3]: 1 to 4 µg/mL; MIC ([4]; Staphylococcus aureus, ATCC6538P, 18 h): 1 µg/mL (≈ 0.69 µM); MIC ([6]; Staphylococcus aureus, ATCC25923, 18 h): 1 µg/mL (≈ 0.69 µM)
